Data from the supplement of paper PMC10307832.

Tests used:
Assay in all cases: relative viability (nuclei count vs DMSO), 5 days (fraction); higher = more cells survive
[1] = tested on: LOU-NH91
Method in brief: (§1)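 For relative viability, nuclei counts in treated wells were divided by those in vehicle wells. Lung cancer cell lines had been pin-tool dosed in 1536-well plates the day after seeding and cultured for 5 days, then fixed and stained in one step (final 0.05% Triton X-100, 1% formaldehyde, 1 ug/ml Hoechst) and imaged at 4×. Doses were one drug alone or a fixed anchor-drug dose plus five library-drug doses (not always all listed) in √10 steps, and values are duplicate-plate medians.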

[2] = tested on: SW 900
Method in brief: as §1

[3] = tested on: ChaGo-K-1
Method in brief: as §1

[4] = tested on: COR-L 105
Method in brief: as §1

[5] = tested on: HCC-366
Method in brief: as §1

[6] = tested on: LK-2
Method in brief: as §1

[7] = tested on: NCI-H1944
Method in brief: as §1

[8] = tested on: NCI-H1666
Method in brief: as §1

[9] = tested on: NCI-H596
Method in brief: as §1

[10] = tested on: NCI-H441
Method in brief: as §1

[11] = tested on: H3255
Method in brief: as §1

[12] = tested on: PC-3 [JPC-3]
Method in brief: as §1

[13] = tested on: NCI-H1792
Method in brief: as §1

[14] = tested on: EKVX
Method in brief: as §1

[15] = tested on: A-427
Method in brief: as §1

[16] = tested on: NCI-H1975
Method in brief: as §1

[17] = tested on: NCI-H520
Method in brief: as §1

[18] = tested on: SK-MES-1
Method in brief: as §1

[19] = tested on: NCI-H1755
Method in brief: as §1

[20] = tested on: EMC-BAC-2
Method in brief: as §1

[21] = tested on: NCI-H1734
Method in brief: as §1

[22] = tested on: NCI-H2170
Method in brief: as §1

[23] = tested on: NCI-H23
Method in brief: as §1

## Clc1ccc(Nc2nnc(Cc3ccncc3)c3ccccc23)cc1 [Vatalanib] + CC(=O)Nc1cccc(-n2c(=O)n(C3CC3)c(=O)c3c(Nc4ccc(I)cc4F)n(C)c(=O)c(C)c32)c1 [Trametinib] (partner 0.02 µM)
[1]; first compound 0.04 µM
  relative viability: 0.769
[1]; first compound 0.1265 µM
  relative viability: 0.764
[1]; first compound 0.4 µM
  relative viability: 0.794
[1]; first compound 1.265 µM
  relative viability: 0.746
[1]; first compound 4 µM
  relative viability: 0.765
[2]; first compound 0.04 µM
  relative viability: 0.768
[2]; first compound 0.1265 µM
  relative viability: 0.696
[2]; first compound 0.4 µM
  relative viability: 0.558
[2]; first compound 1.265 µM
  relative viability: 0.877
[2]; first compound 4 µM
  relative viability: 0.714
[3]; first compound 0.04 µM
  relative viability: 0.86
[3]; first compound 0.1265 µM
  relative viability: 0.823
[3]; first compound 0.4 µM
  relative viability: 0.928
[3]; first compound 1.265 µM
  relative viability: 0.877
[3]; first compound 4 µM
  relative viability: 0.881
[4]; first compound 0.04 µM
  relative viability: 0.451
[4]; first compound 0.1265 µM
  relative viability: 0.363
[4]; first compound 0.4 µM
  relative viability: 0.427
[4]; first compound 1.265 µM
  relative viability: 0.443
[4]; first compound 4 µM
  relative viability: 0.426
[5]; first compound 0.04 µM
  relative viability: 0.393
[5]; first compound 0.1265 µM
  relative viability: 0.294
[5]; first compound 0.4 µM
  relative viability: 0.372
[5]; first compound 1.265 µM
  relative viability: 0.306
[5]; first compound 4 µM
  relative viability: 0.299
[6]; first compound 0.04 µM
  relative viability: 0.677
[6]; first compound 0.1265 µM
  relative viability: 0.682
[6]; first compound 0.4 µM
  relative viability: 0.774
[6]; first compound 1.265 µM
  relative viability: 0.876
[6]; first compound 4 µM
  relative viability: 0.667
[7]; first compound 0.04 µM
  relative viability: 0.42
[7]; first compound 0.1265 µM
  relative viability: 0.373
[7]; first compound 0.4 µM
  relative viability: 0.438
[7]; first compound 1.265 µM
  relative viability: 0.425
[7]; first compound 4 µM
  relative viability: 0.386
[8]; first compound 0.04 µM
  relative viability: 0.83
[8]; first compound 0.1265 µM
  relative viability: 0.886
[8]; first compound 0.4 µM
  relative viability: 0.88
[8]; first compound 1.265 µM
  relative viability: 0.912
[8]; first compound 4 µM
  relative viability: 0.782
[9]; first compound 0.04 µM
  relative viability: 0.782
[9]; first compound 0.1265 µM
  relative viability: 0.88
[9]; first compound 0.4 µM
  relative viability: 0.76
[9]; first compound 1.265 µM
  relative viability: 0.751
[9]; first compound 4 µM
  relative viability: 0.75
[10]; first compound 0.04 µM
  relative viability: 0.435
[10]; first compound 0.1265 µM
  relative viability: 0.366
[10]; first compound 0.4 µM
  relative viability: 0.476
[10]; first compound 1.265 µM
  relative viability: 0.411
[10]; first compound 4 µM
  relative viability: 0.421
[11]; first compound 0.04 µM
  relative viability: 0.563
[11]; first compound 0.1265 µM
  relative viability: 0.606
[11]; first compound 0.4 µM
  relative viability: 0.57
[11]; first compound 1.265 µM
  relative viability: 0.583
[11]; first compound 4 µM
  relative viability: 0.58
[12]; first compound 0.04 µM
  relative viability: 0.78
[12]; first compound 0.1265 µM
  relative viability: 0.675
[12]; first compound 0.4 µM
  relative viability: 0.547
[12]; first compound 1.265 µM
  relative viability: 0.619
[12]; first compound 4 µM
  relative viability: 0.646
[13]; first compound 0.04 µM
  relative viability: 0.528
[13]; first compound 0.1265 µM
  relative viability: 0.395
[13]; first compound 0.4 µM
  relative viability: 0.394
[13]; first compound 1.265 µM
  relative viability: 0.399
[13]; first compound 4 µM
  relative viability: 0.456
[14]; first compound 0.04 µM
  relative viability: 0.274
[14]; first compound 0.1265 µM
  relative viability: 0.409
[14]; first compound 0.4 µM
  relative viability: 0.308
[14]; first compound 1.265 µM
  relative viability: 0.351
[14]; first compound 4 µM
  relative viability: 0.39
[15]; first compound 0.04 µM
  relative viability: 0.741
[15]; first compound 0.1265 µM
  relative viability: 0.743
[15]; first compound 0.4 µM
  relative viability: 0.867
[15]; first compound 4 µM
  relative viability: 0.73
[16]; first compound 0.04 µM
  relative viability: 0.317
[16]; first compound 0.1265 µM
  relative viability: 0.345
[16]; first compound 0.4 µM
  relative viability: 0.434
[16]; first compound 1.265 µM
  relative viability: 0.315
[16]; first compound 4 µM
  relative viability: 0.361
[17]; first compound 0.04 µM
  relative viability: 0.794
[17]; first compound 0.1265 µM
  relative viability: 0.654
[17]; first compound 0.4 µM
  relative viability: 0.766
[17]; first compound 1.265 µM
  relative viability: 0.615
[17]; first compound 4 µM
  relative viability: 0.602
[18]; first compound 0.04 µM
  relative viability: 0.507
[18]; first compound 0.1265 µM
  relative viability: 0.503
[18]; first compound 0.4 µM
  relative viability: 0.573
[18]; first compound 1.265 µM
  relative viability: 0.548
[18]; first compound 4 µM
  relative viability: 0.507
[19]; first compound 0.04 µM
  relative viability: 0.734
[19]; first compound 0.1265 µM
  relative viability: 0.812
[19]; first compound 0.4 µM
  relative viability: 0.753
[19]; first compound 1.265 µM
  relative viability: 0.788
[19]; first compound 4 µM
  relative viability: 0.717
[20]; first compound 0.04 µM
  relative viability: 0.902
[20]; first compound 0.1265 µM
  relative viability: 0.879
[20]; first compound 0.4 µM
  relative viability: 0.908
[20]; first compound 4 µM
  relative viability: 0.944
[21]; first compound 0.04 µM
  relative viability: 0.731
[21]; first compound 0.1265 µM
  relative viability: 0.673
[21]; first compound 0.4 µM
  relative viability: 0.705
[21]; first compound 1.265 µM
  relative viability: 0.655
[21]; first compound 4 µM
  relative viability: 0.684
[22]; first compound 0.04 µM
  relative viability: 0.926
[22]; first compound 0.1265 µM
  relative viability: 0.857
[22]; first compound 0.4 µM
  relative viability: 0.856
[22]; first compound 1.265 µM
  relative viability: 0.892
[22]; first compound 4 µM
  relative viability: 0.899
[23]; first compound 0.04 µM
  relative viability: 0.308
[23]; first compound 0.1265 µM
  relative viability: 0.296
[23]; first compound 0.4 µM
  relative viability: 0.356
[23]; first compound 1.265 µM
  relative viability: 0.363
[23]; first compound 4 µM
  relative viability: 0.419
